This note sets out measurements from patent publication US9254251B2, “Benzoic acid amide compound” (AMOREPACIFIC CORPORATION, priority 2011, dated 2016).

Experiment [1] concerns B16F10 melanoma cells. The experiment is described as follows: Effect of reducing melanin production in melanocytes (Dooley's method). The settings on record: B16-F10, 120 h; Mouse-derived B16F10 melanoma cells; melanin extracted after 5 days, absorbance at 405 nm; read-out: IC50 (concentration required to reduce melanin production in melanocytes to half). It counts as cell-based. As for the experimental part: The effect of reducing melanin production of the benzamide derivative compounds prepared in Examples in melanocytes was measured according to the Dooley's method. Mouse-derived B16F10 melanoma cells acquired from the Korean Cell Line Bank were used. DMEM (Cat No. 11995), FBS (Cat No. 16000-044), and antibiotic and antifungal agents (Cat No. 15240-062) necessary for cell culturing were purchased from Invitrogen (GIBCO). The cells were cultured under the condition of 37° C. and 5% CO2. The cultured B16F10 cells were detached using 0.05% trypsin-EDTA and seeded onto a 48-well plate with the same cell number (1×10^4 cells/well). From the next day, the culture medium was replaced with one containing 10 ppm of the compound of Examples for three consecutive days. Kojic acid and rucinol were used as positive control. After 5 days, melanin was extracted from the cells by treating with 1 N NaOH at 60° C. for 2 hours, which was quantitated by measuring absorbance at 405 nm.

The target in experiment [2] is mushroom tyrosinase. The experiment is described as follows: Effect of inhibiting mushroom tyrosinase activity (method of Vanni, et al.). The settings on record: read-out: IC50 (concentration required to inhibit tyrosinase activity to 50%); mushroom tyrosinase 10 units, tyrosine substrate, 37° C. for 10 minutes, pH 6.8, absorbance at 480 nm. Type of experiment: biochemical. As for the experimental part: The effect of inhibiting mushroom tyrosinase activity of the benzamide derivative compounds of Examples was measured according to the method of Vanni, et al. Specifically, 49.5 μL of 0.1 M potassium phosphate buffer (pH 6.8), 45 μL of distilled water (DW), 0.5 μL (10 units) of mushroom tyrosinase (SIGMAT-7755) and 5 μL of the benzamide derivative compound of Examples were mixed and reacted at 37° C. for 10 minutes by mixing with 50 μL of 0.3 mg/mL tyrosine aqueous solution in a 96-well plate (total volume: 150 μL).

Take `COc1cc(O)c(C(=O)NCc2ccc(O)cc2O)cc1C12CC3CC(CC(C3)C1)C2` [Example 9, 5-adamantan-1-yl-N-(2,4-dihydroxybenzyl)-2-hydroxy-4-methoxybenzamide]: the IC50 in experiment [1] was found to be 1800 nM; in experiment [2] it was 800 nM.
As for `O=C(NCc1ccc(O)cc1O)c1cc(C23CC4CC(CC(C4)C2)C3)c(O)cc1O` [Example 8, 5-adamantan-1-yl-N-(2,4-dihydroxybenzyl)-2,4-dihydroxybenzamide], the IC50 in experiment [1] was 1200 nM; in experiment [2] it was 1100 nM.
With `COc1cc(CNC(=O)c2cc(C34CC5CC(CC(C5)C3)C4)c(O)cc2O)cc(OC)c1` [Example 21, 5-adamantan-1-yl-N-(3,5-dimethoxybenzyl)-2,4-dihydroxybenzamide], the IC50 in experiment [1] came out at 2000 nM.
For the compound `O=C(NCCc1ccc(O)cc1)c1cc(C23CC4CC(CC(C4)C2)C3)c(O)cc1O` [Example 5, 5-adamantan-1-yl-2,4-dihydroxy-N-[2-(4-hydroxyphenyl)-ethyl]benzamide], the IC50 in experiment [1] is 1100 nM.
Same read-out and setting: under `COc1ccc(C(=O)NCc2ccc(O)c(O)c2)cc1C12CC3CC(CC(C3)C1)C2` [Example 12, 3-adamantan-1-yl-N-(3,4-dihydroxybenzyl)-4-methoxybenzamide] stands 1900 nM; under `O=C(NCCc1ccc(O)c(O)c1)c1ccc(O)c(C23CC4CC(CC(C4)C2)C3)c1` [Example 13, 3-adamantan-1-yl-N-[2-(3,4-dihydroxyphenyl)-ethyl]-4-hydroxybenzamide], 3000 nM.
On to `CCCCc1ccc(O)cc1O` [Rucinol, reference compound], for which the IC50 worked out at 10000 nM in experiment [1] and 1300 nM in experiment [2].
For `O=C(NCc1ccc(O)cc1O)c1ccc(O)c(C23CC4CC(CC(C4)C2)C3)c1` [Example 17, 3-adamantan-1-yl-N-(2,4-dihydroxybenzyl)-4-hydroxybenzamide], in experiment [2], the IC50 came to 900 nM.
`O=C(NCCc1ccc(O)c(O)c1)c1cc(C23CC4CC(CC(C4)C2)C3)c(O)cc1O` [Example 1, 5-adamantan-1-yl-N-[2-(3,4-dihydroxyphenyl)-ethyl]-2,4-dihydroxybenzamide]: the IC50 in experiment [1] is 1200 nM.
Same read-out and setting: under `O=C(NCc1cc(O)ccc1O)c1cc(C23CC4CC(CC(C4)C2)C3)c(O)cc1O` [Example 20, 5-adamantan-1-yl-N-(2,5-dihydroxybenzyl)-2,4-dihydroxybenzamide] stands 2900 nM.
As for `COc1cc(OC)c(C23CC4CC(CC(C4)C2)C3)cc1C(=O)NCc1ccc(O)cc1O` [Example 10, 5-adamantan-1-yl-N-(2,4-dihydroxybenzyl)-2,4-dimethoxybenzamide], the IC50 in experiment [1] turned out to be 1100 nM; in experiment [2], 900 nM.
For the compound `COc1ccc(C(=O)NCc2ccc(O)cc2O)cc1C12CC3CC(CC(C3)C1)C2` [Example 18, 3-adamantan-1-yl-N-(2,4-dihydroxybenzyl)-4-methoxybenzamide], the IC50 in experiment [2] turned out to be 1400 nM.
Turning to `O=c1cc(CO)occ1O` [Kojic acid, reference compound], in experiment [1], the IC50 amounted to 300000 nM.
